In patent US7786141B2 (Vertex Pharmaceuticals Incorporated, priority 2004, dated 2010):

What was measured:
[1] = target: T1, M1 muscarinic receptor (Homo sapiens, UniProt P11229); assay: Functional mobilization of intracellular calcium (FLIPR) in M1-CHO cells; assay type: cell-based; conditions: Table 4; for Emax: 100% efficacy is the maximum response obtained with the Carbachol control; for M1 Activity: modulating M1 receptor
T1 construct: expressed in transfected cells; host or cells: CHO (M1-CHO)
T1 sequence (P11229 1-460): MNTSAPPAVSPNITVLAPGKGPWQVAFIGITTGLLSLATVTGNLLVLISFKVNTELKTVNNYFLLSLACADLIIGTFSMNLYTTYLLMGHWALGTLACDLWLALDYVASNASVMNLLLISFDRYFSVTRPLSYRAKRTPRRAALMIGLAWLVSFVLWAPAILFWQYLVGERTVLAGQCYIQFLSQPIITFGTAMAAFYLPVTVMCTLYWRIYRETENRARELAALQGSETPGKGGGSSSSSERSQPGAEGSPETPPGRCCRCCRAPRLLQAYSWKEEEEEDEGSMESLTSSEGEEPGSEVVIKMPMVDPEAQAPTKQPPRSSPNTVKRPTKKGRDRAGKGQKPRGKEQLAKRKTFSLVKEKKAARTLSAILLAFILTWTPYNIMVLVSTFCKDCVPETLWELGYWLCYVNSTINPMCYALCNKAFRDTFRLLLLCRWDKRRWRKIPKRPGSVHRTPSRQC
In short: (§1)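 Two modes: direct compound addition for agonism, or 15 min compound pre-incubation (or co-application) before carbachol at EC80 for inhibition. Calcium signal from Fluo-3 AM or Calcium 3 dye in CHO cells, 1 mM probenecid, pH 7.4, read 60 sec at 488/540 nm; DMSO 0.5% final.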

[2] = target: T2, M4 muscarinic receptor (Homo sapiens, UniProt P08173); assay: Functional mobilization of intracellular calcium (FLIPR) in M4-CHO cells; assay type: cell-based; conditions: Table 4; for Emax: 100% efficacy is the maximum response obtained with the Carbachol control; for M4 Activity: modulating M4 receptor
T2 construct: expressed in transfected cells; host or cells: CHO (M4-CHO)
T2 sequence (P08173 1-479): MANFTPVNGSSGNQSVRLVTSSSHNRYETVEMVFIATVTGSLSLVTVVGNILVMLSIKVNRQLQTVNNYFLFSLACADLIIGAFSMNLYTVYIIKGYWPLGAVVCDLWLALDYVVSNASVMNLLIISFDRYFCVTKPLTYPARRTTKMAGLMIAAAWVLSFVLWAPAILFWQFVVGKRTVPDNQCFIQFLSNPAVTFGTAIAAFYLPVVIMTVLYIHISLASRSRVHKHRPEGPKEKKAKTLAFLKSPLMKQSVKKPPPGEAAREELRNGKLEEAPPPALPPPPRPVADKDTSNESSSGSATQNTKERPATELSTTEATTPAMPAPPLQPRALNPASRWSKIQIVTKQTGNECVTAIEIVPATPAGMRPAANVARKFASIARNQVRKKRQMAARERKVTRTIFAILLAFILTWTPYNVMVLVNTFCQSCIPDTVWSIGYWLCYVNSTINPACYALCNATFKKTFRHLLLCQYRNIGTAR
In short: as §1

SMILES: CN(C)C(=O)CN1CC2(CCN(C[C@H]3C[C@H]4C=CC3C4)CC2)c2cc(F)ccc21 [compound 734]
- Emax [1]: 25 to 100%
- M1 Activity [1]: xxx (activity was measured to be less than 2.0 μM)
- Emax [2]: 25 to 100%
- M4 Activity [2]: xxx (activity was measured to be less than 2.0 μM)

SMILES: COc1cccc(N2CCC(N3CCC4(CC3)CN(C(=O)N(C)C)c3ccc(F)cc34)CC2)c1 [compound 735]
- Emax [1]: 25 to 100%
- M1 Activity [1]: xx (activity was measured to be between 2.0 μM and 5.0 μM)
- Emax [2]: 25 to 100%
- M4 Activity [2]: xxx (activity was measured to be less than 2.0 μM)

SMILES: COCCN1CC2(CCN([C@@H]3C[C@H]4CCC3C4)CC2)c2cc(C)ccc21 [compound 737]
- Emax [1]: 25 to 100%
- M1 Activity [1]: xx (activity was measured to be between 2.0 μM and 5.0 μM)
- Emax [2]: 25 to 100%
- M4 Activity [2]: xxx (activity was measured to be less than 2.0 μM)

SMILES: CC(=O)N[C@H]1CCC2(CCN(CC3CC4C=CC3C4)CC2)c2ccccc21 (stereo partly shown) [compound 740]
- Emax [1]: 25 to 100%
- M1 Activity [1]: xxx (activity was measured to be less than 2.0 μM)
- Emax [2]: 25 to 100%
- M4 Activity [2]: xxx (activity was measured to be less than 2.0 μM)

SMILES: CC(=O)NC1CCC2(CCN(CCC3CCCN(C(=O)OCC(C)C)C3)CC2)c2ccccc21 (stereo not shown) [compound 741]
- Emax [1]: < 25%
- M1 Activity [1]: x (activity was measured to be greater than 5.0 μM)
- Emax [2]: < 25%
- M4 Activity [2]: x (activity was measured to be greater than 5.0 μM)

SMILES: CC(=O)N1CC2(CCN(C3CC4CCC(C3)N4C(=O)OC(C)C)CC2)c2ccccc21 (stereo not shown) [compound 742]
- Emax [1]: 25 to 100%
- M1 Activity [1]: xxx (activity was measured to be less than 2.0 μM)
- Emax [2]: 25 to 100%
- M4 Activity [2]: xxx (activity was measured to be less than 2.0 μM)

SMILES: CCC(C)C(=O)N1C2CCC1CC(N1CCC3(CC1)CN(C(C)=O)c1ccccc13)C2 (stereo not shown) [compound 743]
- Emax [1]: < 25%
- M1 Activity [1]: x (activity was measured to be greater than 5.0 μM)
- Emax [2]: < 25%
- M4 Activity [2]: x (activity was measured to be greater than 5.0 μM)

SMILES: O=C(N[C@H]1CCC2(CCN(C3CC4CCC(C4)C3)CC2)c2ccccc21)C1CC1 (stereo partly shown) [compound 744]
- Emax [1]: 25 to 100%
- M1 Activity [1]: xxx (activity was measured to be less than 2.0 μM)
- Emax [2]: 25 to 100%
- M4 Activity [2]: xxx (activity was measured to be less than 2.0 μM)

SMILES: CCOC(=O)N1C2CCC1CC(N1CCCC3(CC1)CN(C(C)=O)c1ccc(F)cc13)C2 (stereo not shown) [compound 746]
- Emax [1]: 25 to 100%
- M1 Activity [1]: xxx (activity was measured to be less than 2.0 μM)
- Emax [2]: 25 to 100%
- M4 Activity [2]: xxx (activity was measured to be less than 2.0 μM)

SMILES: C#CCCOC(=O)N1C2CCC1CC(N1CCC3(CC1)CN(C(C)=O)c1ccccc13)C2 (stereo not shown) [compound 747]
- Emax [1]: 25 to 100%
- M1 Activity [1]: xxx (activity was measured to be less than 2.0 μM)
- Emax [2]: 25 to 100%
- M4 Activity [2]: xxx (activity was measured to be less than 2.0 μM)

SMILES: CCCOC(=O)N1CCCC(N2CCC3(CC2)CN(C(=O)N(C)C)c2ccc(F)cc23)CC1 (stereo not shown) [compound 749]
- Emax [1]: 25 to 100%
- M1 Activity [1]: xxx (activity was measured to be less than 2.0 μM)
- Emax [2]: 25 to 100%
- M4 Activity [2]: xxx (activity was measured to be less than 2.0 μM)

SMILES: CCOC(=O)N1CCC(N2CCC3(CC2)CN(C(=O)N(CC)CC)c2ccccc23)CC1 [compound 750]
- Emax [1]: 25 to 100%
- M1 Activity [1]: xxx (activity was measured to be less than 2.0 μM)
- Emax [2]: 25 to 100%
- M4 Activity [2]: xxx (activity was measured to be less than 2.0 μM)

SMILES: CCOC(=O)N1CCC(N2CCC3(CC2)CN(C2CCCCC2=O)c2ccc(F)cc23)CC1 (stereo not shown) [compound 751]
- Emax [1]: 25 to 100%
- M1 Activity [1]: xxx (activity was measured to be less than 2.0 μM)
- Emax [2]: 25 to 100%
- M4 Activity [2]: xxx (activity was measured to be less than 2.0 μM)

SMILES: CCOC(=O)N1CCC(N2CCC3(CC2)CN(c2cnccn2)c2ccc(F)cc23)CC1 [compound 752]
- Emax [1]: 25 to 100%
- M1 Activity [1]: xxx (activity was measured to be less than 2.0 μM)
- Emax [2]: 25 to 100%
- M4 Activity [2]: xxx (activity was measured to be less than 2.0 μM)

SMILES: COC(=O)N1CCC(N2CCC3(CC2)CN(C(C)=O)c2ccccc23)CC1 [compound 753]
- Emax [1]: 25 to 100%
- M1 Activity [1]: xx (activity was measured to be between 2.0 μM and 5.0 μM)
- Emax [2]: 25 to 100%
- M4 Activity [2]: xx (activity was measured to be between 2.0 μM and 5.0 μM)

SMILES: CCOC(=O)N1C2CCC1CC(N1CCC3(CC1)CN(C(C)=O)c1ccc(OC)cc13)C2 (stereo not shown) [compound 754]
- Emax [1]: 25 to 100%
- M1 Activity [1]: xxx (activity was measured to be less than 2.0 μM)
- Emax [2]: 25 to 100%
- M4 Activity [2]: xxx (activity was measured to be less than 2.0 μM)

SMILES: CCN(CC)C(=O)N[C@H]1CC2(CCN(C3CC4CC[C@@H]3C4)CC2)c2ccccc21 (stereo partly shown) [compound 755]
- Emax [1]: < 25%
- M1 Activity [1]: x (activity was measured to be greater than 5.0 μM)
- Emax [2]: 25 to 100%
- M4 Activity [2]: xxx (activity was measured to be less than 2.0 μM)

SMILES: CCOC(=O)N1CCC(N2CCC3(CC2)CN(C2CCCC2=O)c2ccc(F)cc23)CC1 (stereo not shown) [compound 756]
- Emax [1]: 25 to 100%
- M1 Activity [1]: xxx (activity was measured to be less than 2.0 μM)
- Emax [2]: 25 to 100%
- M4 Activity [2]: xxx (activity was measured to be less than 2.0 μM)

SMILES: CC(=O)N1CC2(CCN(CC3CCN(C(=O)OC4CCC4)CC3)CC2)c2cc(C)ccc21 [compound 757]
- Emax [1]: < 25%
- M1 Activity [1]: x (activity was measured to be greater than 5.0 μM)
- Emax [2]: < 25%
- M4 Activity [2]: x (activity was measured to be greater than 5.0 μM)

SMILES: CC1(C)C(=O)c2ccccc2C12CCN([C@@H]1C[C@@H]3CC[C@H]1C3)CC2 [compound 758]
- Emax [1]: < 25%
- M1 Activity [1]: x (activity was measured to be greater than 5.0 μM)
- Emax [2]: < 25%
- M4 Activity [2]: x (activity was measured to be greater than 5.0 μM)

SMILES: CC(=O)N[C@H]1CC2(CCN(C3CCC(C(C)C)CC3)CC2)c2ccccc21 (stereo partly shown) [compound 759]
- Emax [1]: < 25%
- M1 Activity [1]: x (activity was measured to be greater than 5.0 μM)
- Emax [2]: < 25%
- M4 Activity [2]: x (activity was measured to be greater than 5.0 μM)

SMILES: COc1ccc(N2CCC(N3CCC4(CC3)CN(C(=O)N(C)C)c3ccc(F)cc34)CC2)nn1 [compound 760]
- Emax [1]: 25 to 100%
- M1 Activity [1]: x (activity was measured to be greater than 5.0 μM)
- Emax [2]: 25 to 100%
- M4 Activity [2]: xxx (activity was measured to be less than 2.0 μM)

SMILES: CC#CCOC(=O)N1CC[C@H](CN2CCC3(CC2)CN(C(=O)N(C)C)c2ccc(F)cc23)C1 [compound 761]
- Emax [1]: 25 to 100%
- M1 Activity [1]: xxx (activity was measured to be less than 2.0 μM)
- Emax [2]: 25 to 100%
- M4 Activity [2]: xxx (activity was measured to be less than 2.0 μM)

SMILES: Cc1ncc(N2CCC(N3CCC4(CC3)CN(C(=O)N(C)C)c3ccc(F)cc34)CC2)nc1C [compound 762]
- Emax [1]: 25 to 100%
- M1 Activity [1]: xxx (activity was measured to be less than 2.0 μM)
- Emax [2]: 25 to 100%
- M4 Activity [2]: xxx (activity was measured to be less than 2.0 μM)

SMILES: CC(=O)N[C@H]1CCC2(CCN(CCC3=C(C)CCCC3(C)C)CC2)c2ccccc21 [compound 764]
- Emax [1]: 25 to 100%
- M1 Activity [1]: xxx (activity was measured to be less than 2.0 μM)
- Emax [2]: < 25%
- M4 Activity [2]: xxx (activity was measured to be less than 2.0 μM)

SMILES: CCOC(=O)N1CCC(N2CCC3(CC(=O)c4cc(F)ccc43)C2)CC1 (stereo not shown) [compound 765]
- Emax [1]: 25 to 100%
- M1 Activity [1]: x (activity was measured to be greater than 5.0 μM)
- Emax [2]: < 25%
- M4 Activity [2]: x (activity was measured to be greater than 5.0 μM)

SMILES: O=C1CCCN1[C@H]1CCC2(CCN([C@@H]3CC4CC[C@H]3C4)CC2)c2ccccc21 [compound 766]
- Emax [1]: 25 to 100%
- M1 Activity [1]: xxx (activity was measured to be less than 2.0 μM)
- Emax [2]: 25 to 100%
- M4 Activity [2]: xxx (activity was measured to be less than 2.0 μM)

SMILES: CN(C)C(=O)N1CC2(CCN(C3CCN(C(=O)c4ccc(F)cc4)CC3)CC2)c2cc(F)ccc21 [compound 767]
- Emax [1]: 25 to 100%
- M1 Activity [1]: x (activity was measured to be greater than 5.0 μM)
- Emax [2]: < 25%
- M4 Activity [2]: x (activity was measured to be greater than 5.0 μM)
